# Results published in PubChem BioAssay AID330 (DTP/NCI, 2004).
# Where “and” joins values, the source holds several entries; their conditions need not be identical. Equal entries are not always repeated. Inconclusive results and toxic doses are left out.
# Tested on: P388 leukemia ip, CD2F1 mice, survival T/C
# Assay: NCI In Vivo Anticancer Drug Screen. Data for tumor model P388 Leukemia (intraperitoneal) in CD2F1 (CDF1) mice
# Conditions: endpoint: median survival time, higher = longer survival
# In short: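 Mice carrying the transplanted tumor received test compound or vehicle. Survival was recorded in each group, and the value is the treated-group measurement divided by that of the vehicle-treated control group.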
# [1] = dose: 25.0 mg/kg/injection, schedule: Q01DX005 (ip), vehicle: saline with Tween-80
# [2] = dose: 50.0 mg/kg/injection, schedule: Q01DX005 (ip), vehicle: saline with Tween-80
smiles,measurement,setting,value
CCSc1ncc(Br)c(Sc2nc(N)nc3nc[nH]c23)n1,T/C,"dose: 4.0 mg/kg/injection, schedule: Q04DX003 (ip), vehicle: saline with Tween-80",113 % of control
same,T/C,"dose: 6.25 mg/kg/injection, schedule: Q01DX009 (ip), vehicle: saline with Tween-80",122 % of control
same,T/C,"dose: 16.5 mg/kg/injection, schedule: Q04DX003 (ip), vehicle: saline with Tween-80",150 % of control
same,T/C,"dose: 25.0 mg/kg/injection, schedule: Q01DX009 (ip), vehicle: saline with Tween-80",90 % of control
same,T/C,"dose: 25.0 mg/kg/injection, schedule: Q04DX003 (ip), vehicle: saline with Tween-80",150 % of control and 159 % of control
same,T/C,"dose: 100.0 mg/kg/injection, schedule: Q04DX003 (ip), vehicle: saline with Tween-80",122 % of control
Cc1ccnc(Sc2ccc([N+](=O)[O-])cc2[N+](=O)[O-])n1,T/C,"dose: 50.0 mg/kg/injection, schedule: Q01DX009 (ip), vehicle: saline",102 % of control
same,T/C,"dose: 100.0 mg/kg/injection, schedule: Q01DX009 (ip), vehicle: saline",104 % of control
same,T/C,"dose: 200.0 mg/kg/injection, schedule: Q01DX009 (ip), vehicle: saline",100 % of control
Cn1c2c([N+](=O)[O-])cccc2c(=O)c2c(O)cc3c(c21)C=CC(C)(C)O3,T/C,"dose: 100.0 mg/kg/injection, schedule: Q01DX001 (ip), vehicle: saline with Tween-80",108 % of control
same,T/C,"dose: 200.0 mg/kg/injection, schedule: Q01DX001 (ip), vehicle: saline with Tween-80",110 % of control
CN=NNc1ccc(C)cc1,T/C,"dose: 12.5 mg/kg/injection, schedule: Q01DX009 (ip), vehicle: distilled water + Tween-80",96 % of control and 97 % of control
same,T/C,"dose: 25.0 mg/kg/injection, schedule: Q01DX009 (ip), vehicle: distilled water + Tween-80",100 % of control
same,T/C,"dose: 50.0 mg/kg/injection, schedule: Q01DX009 (ip), vehicle: distilled water + Tween-80",100 % of control and 124 % of control
same,T/C,"dose: 100.0 mg/kg/injection, schedule: Q01DX009 (ip), vehicle: distilled water + Tween-80",123 % of control
COc1ccc(CC#N)c(OC)c1,T/C,"dose: 12.5 mg/kg/injection, schedule: Q01DX009 (ip), vehicle: other",102 % of control
same,T/C,"dose: 25.0 mg/kg/injection, schedule: Q01DX009 (ip), vehicle: other",102 % of control
COc1ccc2c(c1OC)C(=C(Cl)Cl)N1CCc3cc4c(cc3C1=C2C=O)OCO4,T/C,"dose: 12.5 mg/kg/injection, schedule: Q01DX005 (ip), vehicle: saline with Tween-80",98 % of control
same,T/C,[1],92 % of control
same,T/C,[2],90 % of control and 96 % of control
CC(=O)NC(C)c1ccc2ccccc2c1 (stereo not drawn),T/C,"dose: 60.0 mg/kg/injection, schedule: Q01DX005 (ip), vehicle: saline with Tween-80",97 % of control
same,T/C,"dose: 120.0 mg/kg/injection, schedule: Q01DX005 (ip), vehicle: saline with Tween-80",96 % of control
same,T/C,"dose: 240.0 mg/kg/injection, schedule: Q01DX005 (ip), vehicle: saline with Tween-80",97 % of control
O=C(Nc1ncnc2nc[nH]c12)c1ccccc1,T/C,"dose: 50.0 mg/kg/injection, schedule: Q01DX009 (ip), vehicle: Klucel (hydroxypropylcellulose) (HPC)",107 % of control
same,T/C,"dose: 100.0 mg/kg/injection, schedule: Q01DX009 (ip), vehicle: Klucel (hydroxypropylcellulose) (HPC)",97 % of control
same,T/C,"dose: 200.0 mg/kg/injection, schedule: Q01DX009 (ip), vehicle: Klucel (hydroxypropylcellulose) (HPC)",101 % of control
same,T/C,"dose: 400.0 mg/kg/injection, schedule: Q01DX009 (ip), vehicle: Klucel (hydroxypropylcellulose) (HPC)",112 % of control
Cc1c2cc[n+](CCCCCCCC[n+]3ccc4c(C)c5[nH]c6ccccc6c5cc4c3C)c(C)c2cc2c1[nH]c1ccccc12,T/C,"dose: 0.78 mg/kg/injection, schedule: Q04DX003 (ip), vehicle: distilled water + Tween-80",106 % of control
same,T/C,"dose: 1.56 mg/kg/injection, schedule: Q04DX003 (ip), vehicle: distilled water + Tween-80",106 % of control
same,T/C,"dose: 3.13 mg/kg/injection, schedule: Q04DX003 (ip), vehicle: distilled water + Tween-80",109 % of control
same,T/C,"dose: 6.25 mg/kg/injection, schedule: Q04DX003 (ip), vehicle: distilled water + Tween-80",103 % of control and 113 % of control
same,T/C,"dose: 12.5 mg/kg/injection, schedule: Q04DX003 (ip), vehicle: distilled water + Tween-80",105 % of control and 116 % of control and 122 % of control
same,T/C,"dose: 25.0 mg/kg/injection, schedule: Q04DX003 (ip), vehicle: distilled water + Tween-80",116 % of control and 121 % of control and 123 % of control
same,T/C,"dose: 100.0 mg/kg/injection, schedule: Q04DX003 (ip), vehicle: distilled water + Tween-80",121 % of control
Cc1nc2ncn(-c3ccccc3)c2c(=O)n1-c1ccccc1,T/C,"dose: 50.0 mg/kg/injection, schedule: Q01DX005 (ip), vehicle: Klucel (hydroxypropylcellulose) (HPC)",100 % of control
same,T/C,"dose: 100.0 mg/kg/injection, schedule: Q01DX005 (ip), vehicle: Klucel (hydroxypropylcellulose) (HPC)",100 % of control
same,T/C,"dose: 200.0 mg/kg/injection, schedule: Q01DX005 (ip), vehicle: Klucel (hydroxypropylcellulose) (HPC)",100 % of control
CCNC(=O)OCc1cnc(C)c(O)c1COC(=O)NCC,T/C,[1],102 % of control
same,T/C,[2],100 % of control
same,T/C,"dose: 100.0 mg/kg/injection, schedule: Q01DX005 (ip), vehicle: saline with Tween-80",99 % of control
Nc1ccc(SCCOC(c2ccccc2)(c2ccccc2)c2ccccc2)cc1,T/C,"dose: 100.0 mg/kg/injection, schedule: Q04DX003 (ip), vehicle: saline",101 % of control
same,T/C,"dose: 200.0 mg/kg/injection, schedule: Q04DX003 (ip), vehicle: saline",99 % of control
same,T/C,"dose: 400.0 mg/kg/injection, schedule: Q04DX003 (ip), vehicle: saline",102 % of control
